Reference: US20060223837A1 (priority 2005, published 2006)

Experiments:
human VR1 [1] = target: T1, human VR1 (Homo sapiens, UniProt Q8NER1); assay: Human VR1 [3H]RTX binding assay; details: for h Binding % I (1 μM) / inhibition at 1 µM: inhibition of [3H]RTX binding at 1 μM; for Ki: [3H]RTX binding, HEK293 membranes; for inhibition at 1 µM: read-out: h Binding % I (1 μM)
T1 construct: expressed in transfected cells; host or cells: HEK293
Method: Compounds of the present invention were tested for their ability to inhibit the binding of tritiated resiniferatoxin ([^3H] RTX) to human VR1 receptors in a [^3H] RTX binding assay, as previously described (Zhang, Sui-Po. Improved ligand binding assays for vanilloid receptors. PCT Int. Appl. (2002), WO 0233411 A1 20020425 AN 2002:315209; Grant, Elfrida R., Dubin, Adrienne E., Zhang, Sui-Po, Zivin, Robert A., Zhong, Zhong Simultaneous intracellular calcium and sodium flux imaging in human VR1-transfected human embryonic kidney cells: a method to resolve ionic dependence of VR1-mediated cell death. J. Pharmacol. Exp. ther., 2002, 300(1), 9-17.) HEK293 cells were transfected with human VR1 and washed with Hank's balanced Salt Solution, dissociated with cell dissociation buffer (Sigma), and then centrifuged at 1000× g for 5 min. Cell pellets were homogenized in cold 20 mM HEPES buffer (pH 7.4), containing 5.8 mM NaCl, 320 mM sucrose, 2 mM MgCl2, 0.75 CaCl2 and 5 mM KCl and centrifuged at 1000× g for 15 min. The resultant supernate was then centrifuged at 40000× g for 15 min. The pelleted membranes were stored in a freezer at −80 C.
Approximately 120 μg protein/ml from membranes were incubated with indicated concentrations of [^3H]RTX in 0.5 ml of the HEPES buffer (pH 7.4) containing 0.25 mg/mL fatty acid-free bovine serum albumin at 37 C for 60 min. After cooling the reaction mixture to 4 C, 0.1 mg (x-acid glycoprotein was added to each sample, which was incubated at 4 C for 15 min and then centrifuged at 18500× g for 15 min. The tip of the microcentrifuge tube containing the pellet was cut off. Bound radioactivity was quantified by scintillation counting. Non-specific binding was assessed in the presence of 200 nM unlabeled resiniferatoxin.
Data were calculated according to the equation: % inhibtion=(total binding−binding)*100/(total binding−non specific binding).
Ki values were calculated based on an average of duplicate measurements using a GraphPad Prism program.

human VR1 [2] = target: T1, human VR1; assay: Human VR1 functional assay (FLIPR intracellular Ca2+); assay type: cell-based; details: inhibition of capsaicin response; for inhibition at 1 µM: read-out: h % I (1 μM)
Method: The functional activity of the test compounds was determined by measuring changes in intracellular calcium concentration using a Ca^2+-sensitive fluorescent dye and FLIPR™ technology. Increases in Ca^2+ concentration were readily detected upon challenge with capsaicin. HEK293 Cells expressing human VR1 were grown on poly-D-lysine coated 384 well black-walled plates (BD 354663) and 1 day later loaded with Calcium 3 Dye for 35 min at 37 C, 5% CO2 and then for 25 min at room temperature, and subsequently tested for agonist-induced increases in intracellular Ca^2+ levels using FLIPR™ technology. Cells were challenged with test compounds (at varying concentrations, which are indicated in parentheses in the heading of the table below) and intracellular Ca^2+ was measured for 5 min prior to the addition of capsaicin to all wells to achieve a final concentration of eliciting an approximate 80% maximal response ([…]). EC50 or IC50 values were determined from dose-response studies. Curves were generated using the average of quadruplicate wells for each data point.

T1 sequence (Q8NER1 whole entry): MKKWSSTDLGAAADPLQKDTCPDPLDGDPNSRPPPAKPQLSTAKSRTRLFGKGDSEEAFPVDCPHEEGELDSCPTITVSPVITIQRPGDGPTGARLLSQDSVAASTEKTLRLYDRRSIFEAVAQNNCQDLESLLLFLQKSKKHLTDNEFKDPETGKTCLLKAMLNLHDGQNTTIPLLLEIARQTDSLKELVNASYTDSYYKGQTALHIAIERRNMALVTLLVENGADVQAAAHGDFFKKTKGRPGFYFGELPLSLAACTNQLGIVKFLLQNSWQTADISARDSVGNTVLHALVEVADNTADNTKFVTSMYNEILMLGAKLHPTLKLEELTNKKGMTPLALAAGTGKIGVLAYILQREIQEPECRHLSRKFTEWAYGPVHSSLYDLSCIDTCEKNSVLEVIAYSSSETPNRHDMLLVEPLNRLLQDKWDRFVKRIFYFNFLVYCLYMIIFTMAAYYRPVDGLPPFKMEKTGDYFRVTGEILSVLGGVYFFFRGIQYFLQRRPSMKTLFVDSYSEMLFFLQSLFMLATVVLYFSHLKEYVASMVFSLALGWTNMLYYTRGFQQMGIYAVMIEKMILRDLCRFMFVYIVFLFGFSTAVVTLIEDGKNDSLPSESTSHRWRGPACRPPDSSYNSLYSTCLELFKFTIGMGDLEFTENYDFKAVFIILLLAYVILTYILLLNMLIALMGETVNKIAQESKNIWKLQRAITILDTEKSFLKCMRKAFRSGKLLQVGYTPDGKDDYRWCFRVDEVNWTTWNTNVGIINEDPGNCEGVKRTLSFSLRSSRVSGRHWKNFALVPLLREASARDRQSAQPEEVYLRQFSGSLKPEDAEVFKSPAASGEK

Row | Structure (SMILES) | h Binding % I (1 μM) (human VR1 [1]) [%] | other results
1 | CC(C)(C)c1ccc(CCC(=O)Nc2ccc(-c3cccc(CO)c3)cc2)cc1 [Cpd 23] | 40 | 
2 | CC(C)(C)c1ccc(CCC(=O)Nc2ccc(-c3cccc(C#N)c3)cc2)cc1 [Cpd 25] |  | Ki (human VR1 [1]): 103 nM; inhibition at 1 µM (human VR1 [1]): 94%
3 | COc1cccc(-c2ccc(NC(=O)CCc3ccc(C(C)(C)C)cc3)cc2)c1 [Cpd 27] |  | Ki (human VR1 [1]): 846 nM; inhibition at 1 µM (human VR1 [1]): 53%
4 | CC(C)(C)c1ccc(/C=C/C(=O)Nc2cccc(-c3cccc(C(N)=O)c3)c2)cc1 [Cpd 33] |  | Ki (human VR1 [1]): 171 nM; inhibition at 1 µM (human VR1 [1]): 82%
5 | NC(=O)c1cccc(-c2ccc(NC(=O)/C=C/c3ccc(C(F)(F)F)cc3)cc2)c1 [Cpd 47] | 1 | 
6 | Cc1cc(-c2cccc(C(N)=O)c2)ccc1NC(=O)CCc1ccc(C(C)(C)C)cc1 [Cpd 50] | 11 | 
7 | Cc1cc(NC(=O)CCc2ccc(C(C)(C)C)cc2)ccc1-c1cccc(C(N)=O)c1 [Cpd 51] | 19 | 
8 | CC(C)(C)c1ccc(CCC(=O)Nc2ccc(-c3cccc(C(N)=O)c3)cc2F)cc1 [Cpd 52] | 1 | 
9 | CC(C)(C)c1ccc(CCC(=O)Nc2ccc(-c3cccc(C(N)=O)c3)c(F)c2)cc1 [Cpd 53] | 27 | 
10 | CC(=O)Nc1cccc(-c2ccc(NC(=O)CCc3ccc(C(C)(C)C)cc3)c(C)c2)c1 [Cpd 54] | 5 | 
11 | CC(=O)Nc1cccc(-c2ccc(NC(=O)CCc3ccc(C(C)(C)C)cc3)c(F)c2)c1 [Cpd 56] | 16 | 
12 | CC(C)(C)c1ccc(CCC(=O)Nc2ccc(-c3cccc(C(N)=O)c3)cc2)s1 [Cpd 63] | 1 | 
13 | CC(=O)Nc1cccc(-c2ccc(NC(=O)CCc3ccc(C(C)(C)C)s3)cc2)c1 [Cpd 64] | 33 | 
14 | CC(C)(C)c1ccc(CCC(=O)Nc2ccc(-c3cccc(C(N)=O)c3)cc2C(=O)O)cc1 [Cpd 66] | 1 | 
15 | CNC(=O)c1cccc(-c2ccc(NC(=O)CCc3ccc(C(C)(C)C)cc3)c(C(=O)O)c2)c1 [Cpd 67] | 1 | 
16 | CC(C)(C)c1ccc(CCC(=O)Nc2ccc(-c3cccc(O)c3)cc2C(=O)O)cc1 [Cpd 68] | 1 | 
17 | CC(C)(C)c1ccc(CCC(=O)Nc2cccc(-c3cccnc3)c2)cc1 [Cpd 106] | 1 | 
18 | CC(C)(C)c1ccc(CCC(=O)Nc2ccc(-c3ccccn3)cc2)cc1 [Cpd 110] |  | Ki (human VR1 [1]): 11.3 nM; inhibition at 1 µM (human VR1 [1]): 97%
19 | CC(C)(C)c1ccc(CCC(=O)Nc2ccc(-c3ncccn3)cc2)cc1 [Cpd 112] |  | Ki (human VR1 [1]): 216 nM; inhibition at 1 µM (human VR1 [1]): 68%
20 | CC(C)(C)c1ccc(CCC(=O)Nc2cccc(-c3cncnc3)c2)cc1 [Cpd 117] | 1 | 
21 | COc1ccc(-c2cccc(NC(=O)CCc3ccc(C(C)(C)C)cc3)c2)cn1 [Cpd 119] | 1 | 
22 | COc1ccc(-c2ccc(NC(=O)CCc3ccc(C(C)(C)C)cc3)cc2)cn1 [Cpd 121] | 36 | 
23 | CC(C)(C)c1ccc(CCC(=O)Nc2ccc(-c3cccc4[nH]ccc34)cc2)cc1 [Cpd 122] |  | Ki (human VR1 [1]): 335 nM; inhibition at 1 µM (human VR1 [1]): 64%
24 | CC(C)(C)c1ccc(CCC(=O)Nc2ccc(-c3ccc4cc[nH]c4c3)cc2)cc1 [Cpd 123] | 39 | 

Row | Structure (SMILES) | h Binding % I (1 μM) (human VR1 [1]) [%] | other results
25 | CC(C)(C)c1ccc(CCC(=O)Nc2ccc(-c3cccc(C(N)=O)c3)cn2)cc1 [Cpd 124] | 1 | 
26 | CC(=O)Nc1cccc(-c2ccc(NC(=O)CCc3ccc(C(C)(C)C)cc3)nc2)c1 [Cpd 125] | 1 | 
27 | CC(C)(C)c1ccc(CCC(=O)Nc2cccc(-c3cccc(O)c3)n2)cc1 [Cpd 126] | 9 | 
28 | CC(C)(C)c1ccc(CCC(=O)Nc2ccc(-c3cccc(C(N)=O)c3)nc2)cc1 [Cpd 127] | 16 | 
29 | CC(C)(C)c1ccc(CCC(=O)Nc2ncc(-c3cccc(C(N)=O)c3)cn2)cc1 [Cpd 130] | 1 | 
30 | CC(C)(C)c1ccc(CCC(=O)Nc2cnc(-c3cccc(C(N)=O)c3)cn2)cc1 [Cpd 131] | 1 | 
31 | CC(C)(C)c1ccc(CCC(=O)Nc2ccc(-c3cccc(CO)c3)nc2)cc1 [Cpd 134] | 25 | 
32 | CC(C)(C)c1ccc(CCC(=O)Nc2ccc(-c3ccncc3)cc2C(=O)O)cc1 [Cpd 139] | 1 | 
33 | CC(C)(C)c1ccc(CCC(=O)Nc2ccc(-c3ccncc3)cc2CO)cc1 [Cpd 140] | 1 | 
34 | CC(C)(C)c1ccc(CCC(=O)Nc2ccc(-c3ccncc3)c(C(=O)O)c2)cc1 [Cpd 141] | 1 | 
35 | O=C(CCc1ccc(C(F)(F)F)cc1)Nc1ccc(-c2ccccc2O)nc1 [Cpd 146] | 8 | 
36 | Cc1nc(-c2ccc(NC(=O)CCc3ccc(C(F)(F)F)cc3)cc2C(F)(F)F)no1 [Cpd 266, N-[4-(5-Methyl-[1,2,4]oxadiazol-3-yl)-3-trifluoromethyl-phenyl]-3-(4-trifluoromethyl-phenyl)-propionamide] |  | inhibition at 1 µM (human VR1 [2]): 47%; inhibition at 5 µM (human VR1 [2]; 5 μM, read-out: h % I (5 μM)): 64%
37 | Cc1nccn1-c1ccc(NC(=O)CCc2ccc(C(F)(F)F)cc2)cc1C(F)(F)F [Cpd 267] |  | h % I (1 μM) (human VR1 [2]): 20%
38 | CC(C)c1nccn1-c1ccc(NC(=O)CCc2ccc(C(F)(F)F)cc2)cc1C(F)(F)F [Cpd 268] |  | h % I (1 μM) (human VR1 [2]): 15%
39 | O=C(CCc1ccc(C(F)(F)F)cc1)Nc1ccc(-n2ccc3ccccc32)c(C(F)(F)F)c1 [Cpd 269] |  | h % I (1 μM) (human VR1 [2]): 21%
40 | O=C(CCc1ccc(C(F)(F)F)cc1)Nc1ccc(-n2cnc3c2CCCC3)c(C(F)(F)F)c1 [Cpd 270, N-[4-(4,5,6,7-Tetrahydro-benzoimidazol-1-yl)-3-trifluoromethyl-phenyl]-3-(4-trifluoromethyl-phenyl)-propionamide] |  | inhibition at 1 µM (human VR1 [2]): 47%
41 | COC(=O)c1cn(-c2ccc(NC(=O)CCc3ccc(C(F)(F)F)cc3)cc2C(F)(F)F)cn1 [Cpd 271] |  | h % I (1 μM) (human VR1 [2]): 26%
42 | Cc1cc(NC(=O)CCc2ccc([S+]([O-])C(F)(F)F)cc2)cnc1-n1cnc(Cl)c1Cl (stereo not shown) [Cpd 273] |  | h % I (1 μM) (human VR1 [2]): 36%
43 | Cc1cc(NC(=O)/C=C/c2ccc([S+]([O-])C(F)(F)F)cc2)cnc1-n1cnc(Cl)c1Cl (stereo not shown) [Cpd 274] |  | h % I (1 μM) (human VR1 [2]): 18%
44 | Cc1cc(NC(=O)/C=C/c2ccc(SC(F)(F)F)cc2)cnc1-n1cnc(Cl)c1Cl [Cpd 275] |  | h % I (1 μM) (human VR1 [2]): 16%
45 | Cc1cc(NC(=O)/C=C/c2ccc(C(F)(F)F)cn2)cnc1-n1cnc(Cl)c1Cl [Cpd 276] |  | h % I (1 μM) (human VR1 [2]): 19%
46 | Cc1cc(NC(=O)CCc2ccc(C(F)(F)F)cn2)cnc1-n1cnc(Cl)c1Cl [Cpd 278] |  | h % I (1 μM) (human VR1 [2]): 36%
47 | O=C(CCc1ccc(F)cc1)Nc1ccc(-n2ccnc2)c(C(F)(F)F)c1 [Cpd 279] |  | h % I (1 μM) (human VR1 [2]): 30%
48 | Cc1cc(NC(=O)CCc2ccc(F)cc2)cnc1-n1cnc(Cl)c1Cl [Cpd 280] |  | h % I (1 μM) (human VR1 [2]): 16%
